Reference: patent US10836763B2, “5 to 7 membered heterocyclic amides as JAK inhibitors” (priority 2018, dated 2020)

Tests used:
JAK3 = JAK3 (Homo sapiens (Human), UniProt P52333); format: biochemical
Experimental: (§1) Assay 1: Biochemical JAK Kinase Assays
(§2) A panel of four LanthaScreen JAK biochemical assays (JAK1, 2, 3 and Tyk2) were carried in a common kinase reaction buffer (50 mM HEPES, pH 7.5, 0.01% Brij-35, 10 mM MgCl2, and 1 mM EGTA). Recombinant GST-tagged JAK enzymes and a GFP-tagged STAT1 peptide substrate were obtained from Life Technologies.
(§3) Serially diluted compounds were pre-incubated with each of the four JAK enzymes and the substrate in white 384-well microplates (Corning) at ambient temperature for 1 h. ATP was subsequently added to initiate the kinase reactions in 10 μL total volume, with 1% DMSO. […] Kinase reactions were allowed to proceed for 1 hour at ambient temperature before a 10 μL preparation of EDTA (10 mM final concentration) and Tb-anti-pSTAT1 (pTyr701) antibody (Life Technologies, 2 nM final concentration) in TR-FRET dilution buffer (Life Technologies) was added. The plates were allowed to incubate at ambient temperature for 1 h before being read on the EnVision reader (Perkin Elmer). Emission ratio signals (520 nm/495 nm) were recorded and utilized to calculate the percent inhibition values based on DMSO and background controls.
(§4) For dose-response analysis, percent inhibition data were plotted vs. compound concentrations, and IC50 values were determined from a 4-parameter robust fit model with the Prism software (GraphPad Software). Results were expressed as pIC50 (negative logarithm of IC50) and subsequently converted to pKi (negative logarithm of dissociation constant, Ki) using the Cheng-Prusoff equation.

[1] = test system: TSLP-evoked TARC release in human peripheral blood mononuclear cells; experiment: Inhibition of TSLP-evoked TARC release in human peripheral blood mononuclear cells; format: cell-based; details: PBMC from 3 to 5 donors, TSLP 10 ng/mL, 48 hours, TARC ELISA, read-out: pIC50 ± st. dev., inhibition of TSLP-evoked TARC release (converted)
From the text: Assay 4: Inhibition of TSLP-Evoked TARC Release in Human Peripheral Blood Mononuclear Cells
Thymic stromal lymphopoietin (TSLP) and thymus and activation-regulated chemokine (TARC) are overexpressed in asthmatic airways, and correlate with disease severity. In the lungs, TSLP may be released by bronchial epithelial cells in response to allergens and viral infections. TSLP signals through an IL-7Rα/TSLPR heterodimer found in a broad range of tissues and cell types, including epithelial cells, endothelial cells, neutrophils, macrophages, and mast cells. The binding of TSLP to its receptor induces a conformational change that activates JAK1 and JAK2 to phosphorylate various transcription factors, including STAT3 and STAT5. In immune cells, this triggers a cascade of intracellular events that result in cell proliferation, anti-apoptosis, dendritic cell migration, and production of Th2 cytokines and chemokines. In peripheral blood mononuclear cells (PBMC), TSLP has a proinflammatory effect by activating myeloid dendritic cells to attract and stimulate T cells, a process mediated by the chemoattractant TARC.
The potencies of the test compounds were measured for inhibition of TARC release.
PBMC aliquots (previously isolated from whole blood and frozen in aliquots at −80° C.) from 3 to 5 donors were thawed at 37° C. and added dropwise to 40 mL pre-warmed, sterile-filtered, complete RPMI media in 50 mL Falcon tubes. Cells were pelleted and resuspended in complete media at 2.24×10^6 cells/mL. Cells were seeded at […] (190,000 cells) per well in a tissue culture treated 96-well flat bottom microplate. Cells were allowed to rest for 1 hour at 37° C. with 5% CO2.
Compounds were received as 10 mM stock solutions in DMSO. 3.7-fold serial dilutions were performed to generate 9 concentrations of test compound in DMSO at 300× the final assay test concentration. […] After the 1 hour rest period, 95 µL of 2× compound was added to each well of PBMC, for a final assay concentration range of 33.33 μM to […]. 95 μL of 0.2% DMSO in complete media was added to the untreated control wells. Cells were pre-treated with compound for 1 hour at 37° C. with 5% CO2 prior to stimulation.
Recombinant human TSLP protein was reconstituted at 10 μg/mL in sterile DPBS with 0.1% BSA and stored in aliquots at −20° C. Immediately prior to use, an aliquot was thawed and prepared at 20× the final assay concentration in complete media. 10 μL of 20×TSLP was added to each well of PBMC, for a final assay concentration of 10 ng/mL. 10 μL of complete media was added to the unstimulated control wells. Cells were stimulated in the presence of compound for 48 hours at 37° C. with 5% CO2.
Following stimulation, the cell culture supernatants were harvested and TARC levels were detected by enzyme-linked immunosorbent assay (ELISA), using Human CCL17/TARC Quantikine ELISA Kit (R&D Systems # DDN00) according to the manufacturer's instructions.
For dose response analysis, the log [test compound (M)] was plotted versus the percent response values for each donor, and IC50 values were determined using a nonlinear regression analysis with GraphPad Prism Software using the 4-parameter sigmoidal dose-response algorithm with variable slope. Data are expressed as mean pIC50 (negative decadic logarithm IC50) values calculated from pIC50 values of individual donors and rounded to one decimal place.

[2] = test system: IL-2 stimulated STAT5 phosphorylation in Tall-1 human T cell line; experiment: Inhibition of IL-2 stimulated pSTAT5 in Tall-1 T cells; format: cell-based; details: TALL-1, 0.5 h, IL-2 300 ng/mL, 30 min, pSTAT5 AlphaLisa, read-out: Tall-1 pIC50 (converted)
Experimental: Assay 2: Inhibition of IL-2 Stimulated pSTAT5 in Tall-1 T Cells
The potency of test compounds for inhibition of interleukin-2 (IL-2) stimulated STAT5 phosphorylation was measured in the Tall-1 human T cell line (DSMZ) using AlphaLisa.
Phosphorylated STAT5 was measured via the AlphaLISA SureFire Ultra pSTAT5 (Tyr694/699) kit (PerkinElmer).
Compounds were serially diluted in DMSO and dispensed acoustically to empty wells. Assay media (phenol red-free DMEM (Life Technologies) supplemented with 10% FBS (ATCC)) was dispensed (4 μL/well) and plates shaken at 900 rpm for 10 mins. Cells were seeded at 45,000 cells/well in assay media (4 μL/well), and incubated at 37° C., 5% CO2 for 1 hour, followed by the addition of IL-2 (R&D Systems; final concentration 300 ng/mL) in pre-warmed assay media (4 μL) for 30 minutes. […] The lysate was shaken at 900 rpm for 10 minutes at room temperature (RT). Phosphorylated STAT5 was measured via the pSTAT5 AlphaLisa kit (PerkinElmer). Freshly prepared acceptor bead mixture was dispensed onto lysate (5 μL) under green filtered <100 lux light. Plates were shaken at 900 rpm for 2 mins, briefly spun down, and incubated for 2 hrs at RT in the dark. Donor beads were dispensed (5 μL) under green filtered <100 lux light. Plates were shaken at 900 rpm for 2 minutes, briefly spun down, and incubated overnight at RT in the dark. Luminescence was measured with excitation at 689 nm and emission at 570 nm using an EnVision plate reader (PerkinElmer) under green filtered <100 lux light.
To determine the inhibitory potency of test compounds in response to IL-2, the average emission intensity of beads bound to pSTAT5 was measured in a human T cell line. IC50 values were determined from analysis of the inhibition curves of signal intensity versus compound concentration. Data are expressed as pIC50 (negative decadic logarithm IC50) values (mean±standard deviation).

JAK2 = JAK2 (Homo sapiens (Human), UniProt O60674); experiment: Biochemical JAK kinase assay (LanthaScreen), JAK2; details: ATP at Km 3 μM; pIC50 converted with Cheng-Prusoff
Experimental: as §1, §2, §3, §4

Sequence of JAK3 (P52333 whole entry): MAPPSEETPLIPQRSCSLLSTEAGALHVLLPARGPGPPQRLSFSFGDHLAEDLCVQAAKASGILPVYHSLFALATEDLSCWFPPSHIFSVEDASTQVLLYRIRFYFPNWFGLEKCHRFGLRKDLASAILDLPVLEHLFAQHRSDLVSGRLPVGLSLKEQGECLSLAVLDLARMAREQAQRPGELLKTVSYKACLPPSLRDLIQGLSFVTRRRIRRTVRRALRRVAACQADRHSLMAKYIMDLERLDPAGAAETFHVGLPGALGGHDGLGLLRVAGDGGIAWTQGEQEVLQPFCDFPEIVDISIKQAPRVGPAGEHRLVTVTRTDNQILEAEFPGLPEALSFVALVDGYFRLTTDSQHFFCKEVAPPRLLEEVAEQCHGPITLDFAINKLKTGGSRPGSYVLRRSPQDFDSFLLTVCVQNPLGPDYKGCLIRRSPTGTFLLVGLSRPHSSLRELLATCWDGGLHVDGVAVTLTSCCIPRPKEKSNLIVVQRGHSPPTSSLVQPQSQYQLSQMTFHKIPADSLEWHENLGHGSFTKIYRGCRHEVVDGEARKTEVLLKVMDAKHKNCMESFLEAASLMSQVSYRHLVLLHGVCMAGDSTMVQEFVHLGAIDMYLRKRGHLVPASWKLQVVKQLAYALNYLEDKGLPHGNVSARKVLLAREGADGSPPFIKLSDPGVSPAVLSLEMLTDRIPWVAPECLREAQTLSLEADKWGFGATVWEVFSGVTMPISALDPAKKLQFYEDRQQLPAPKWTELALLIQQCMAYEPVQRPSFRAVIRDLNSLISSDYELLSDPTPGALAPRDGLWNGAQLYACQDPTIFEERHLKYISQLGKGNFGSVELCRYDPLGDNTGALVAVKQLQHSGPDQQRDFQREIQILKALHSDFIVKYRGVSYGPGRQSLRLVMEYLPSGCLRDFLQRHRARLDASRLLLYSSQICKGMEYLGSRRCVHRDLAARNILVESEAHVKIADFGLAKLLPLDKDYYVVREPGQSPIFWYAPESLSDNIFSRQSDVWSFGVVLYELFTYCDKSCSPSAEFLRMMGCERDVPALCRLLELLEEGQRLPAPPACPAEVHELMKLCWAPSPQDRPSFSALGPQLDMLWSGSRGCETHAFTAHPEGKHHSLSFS
Sequence of JAK2 (O60674 whole entry): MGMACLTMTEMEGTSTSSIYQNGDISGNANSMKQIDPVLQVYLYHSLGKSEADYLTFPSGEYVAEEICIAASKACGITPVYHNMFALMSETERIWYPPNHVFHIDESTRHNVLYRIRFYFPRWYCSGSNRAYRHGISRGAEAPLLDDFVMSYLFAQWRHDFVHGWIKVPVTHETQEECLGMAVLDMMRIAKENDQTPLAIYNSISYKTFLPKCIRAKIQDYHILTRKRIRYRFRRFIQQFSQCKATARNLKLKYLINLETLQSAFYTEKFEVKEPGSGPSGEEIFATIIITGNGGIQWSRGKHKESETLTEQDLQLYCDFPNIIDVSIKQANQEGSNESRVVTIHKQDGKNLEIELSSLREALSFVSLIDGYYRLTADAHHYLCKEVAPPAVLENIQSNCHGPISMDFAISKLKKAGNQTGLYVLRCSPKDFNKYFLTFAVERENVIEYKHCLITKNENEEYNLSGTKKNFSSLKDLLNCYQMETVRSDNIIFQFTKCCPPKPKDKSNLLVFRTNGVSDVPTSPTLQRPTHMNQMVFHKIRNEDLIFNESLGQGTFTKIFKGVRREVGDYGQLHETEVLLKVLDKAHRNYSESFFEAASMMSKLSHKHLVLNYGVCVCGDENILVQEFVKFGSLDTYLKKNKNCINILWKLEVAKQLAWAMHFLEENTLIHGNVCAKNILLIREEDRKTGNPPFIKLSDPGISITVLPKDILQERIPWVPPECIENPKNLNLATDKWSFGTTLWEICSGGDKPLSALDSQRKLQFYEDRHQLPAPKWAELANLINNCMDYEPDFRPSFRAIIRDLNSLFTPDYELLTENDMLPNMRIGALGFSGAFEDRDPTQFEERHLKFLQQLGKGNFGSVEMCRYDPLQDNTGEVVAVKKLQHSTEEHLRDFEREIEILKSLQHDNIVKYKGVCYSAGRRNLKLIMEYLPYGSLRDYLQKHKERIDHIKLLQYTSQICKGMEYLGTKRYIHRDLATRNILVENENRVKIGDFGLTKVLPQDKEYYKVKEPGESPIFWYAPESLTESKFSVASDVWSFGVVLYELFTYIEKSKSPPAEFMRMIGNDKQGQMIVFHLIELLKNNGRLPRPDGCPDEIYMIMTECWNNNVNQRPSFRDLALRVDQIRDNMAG

| Structure (SMILES) | JAK3 PKi (JAK3) | IC50 [1] | IC50 [2] | JAK2 pKi (JAK2) |
| --- | --- | --- | --- | --- |
| CCCN1Cc2[nH]c(-c3n[nH]c4cc(-c5cc(F)c(O)cc5CC)ccc34)nc2C[C@H]1C(=O)N1C[C@@H]2C[C@H]1CN2C [Compound C-2, ((S)-2-(6-(2-ethyl-5-fluoro-4-hydroxyphenyl)-1H-indazol-3-yl)-5-propyl-4,5,6,7-tetrahydro-3H-imidazo[4,5-c]pyridin-6-yl)((1S,4S)-5-methyl-2,5-diazabicyclo-[2.2.1]heptan-2-yl)methanone, reference compound] | 9.9 | 251 nM | 2.51 nM | 10.8 |
| CCc1cc(O)c(F)cc1-c1ccc2c(-c3nc4c([nH]3)CN(C)[C@H](C(=O)N3CCN(CCO)C[C@H]3C)C4)n[nH]c2c1 [Compound C-5, ((S)-2-(6-(2-ethyl-5-fluoro-4-hydroxyphenyl)-1H-indazol-3-yl)-5-methyl-4,5,6,7-tetrahydro-3H-imidazo[4,5-c]pyridin-6-yl)((R)-4-(2-hydroxyethyl)-2-methyl-piperazin-1-yl)methanone, reference compound] | 9.9 | 50.1 nM | 2.51 nM | 10.7 |
